This passage reports EC50, EC90 and CC50 results from EP4548976A1, “ANTIVIRAL COMPOUNDS AND COMPOSITIONS THEREFROM” (Consejo Superior De Investigaciones Científicas, priority 2023, dated 2025).

For data set [1], the system named is SARS-CoV-2 stock strain NL/2020. The data set can be described thus: Antiviral activity in A549-ACE2 cells using viral antigen quantitation (SARS-CoV-2 N protein immunofluorescence). Conditions: Severe acute respiratory syndrome coronavirus 2, MOI 0.005, 48 h; for pEC50: concentration reducing SARS-CoV-2 infection efficiency by 50% vs vehicle; for EC90: concentration reducing SARS-CoV-2 infection efficiency by 90% vs vehicle. The class given is cell-based.

Data set [2] can be described thus: in vitro. To be noted: human.

SMILES strings stand for the structures. pEC50: −log10 of the molar value.

For the compound `COC(=O)c1cc(-c2ccc(N3CCOCC3)cc2)ccc1NC(C#N)[C@H](Cc1c[nH]c2cc(Br)ccc12)NC(=O)OC(C)(C)C` (mixture of isomers) [Example 2, Methyl 4-(((1RS,2S)-3-(6-bromo-1H-indol-3-yl)-2-((tert-butoxycarbonyl)amino)-1-cyanopropyl)amino)-4'-morpholino-[1,1'-biphenyl]-3-carboxylate], in data set [1], the pEC50 was 5.80 and it took 6 µM to reach the 90% level (EC90). The same compound registered a CC50 in data set [2] greater than 50 µM.
In data set [1], `COC(=O)c1cc(-c2cnn(Cc3ccccc3)c2)ccc1NC(C#N)[C@H](Cc1c[nH]c2ccccc12)NC(=O)OC(C)(C)C` (mixture of isomers) [Example 17, Methyl 5-(1-benzyl-1H-pyrazol-4-yl)-2-(((1RS,2S)-2-((tert-butoxycarbonyl)amino)-1-cyano-3-(1H-indol-3-yl)propyl)amino)benzoate] gave a pEC50 of 6.00 and an EC90 of 2 µM. The compound also showed a CC50 in data set [2] greater than 50 µM.
In the same order, the values of `COC(=O)c1cc(-c2ccc3[nH]ccc3c2)ccc1NC(C#N)[C@H](Cc1c[nH]c2ccccc12)NC(=O)OC(C)(C)C` (mixture of isomers) [Example 9, Methyl 2-(((1RS,2S)-2-((tert-butoxycarbonyl)amino)-1-cyano-3-(1H-indol-3-yl)propyl)amino)-5-(1H-indol-5-yl)benzoate] are greater than 6.40, 5 µM and 50 µM.
Take `COC(=O)c1cc(-c2ccc(N3CCOCC3)cc2)ccc1NC(C#N)[C@H](Cc1c[nH]c2ccc(-c3ccccc3)cc12)NC(=O)OC(C)(C)C` (mixture of isomers) [Example 5, Methyl 4-(((1RS,2S)-2-((tert-butoxycarbonyl)amino)-1-cyano-3-(5-phenyl-1H-indol-3-yl)propyl)amino)-4'-morpholino-[1,1'-biphenyl]-3-carboxylate]: in data set [1], the pEC50 was 5.40 and the EC90 stood at 13 µM. Besides, the CC50 in data set [2] was greater than 50 µM.

In general, pEC50 refers to the negative decadic logarithm of the EC50, by convention in mol/L. A high value points to a low EC50. One may read the EC90 as the concentration needed for an effect of 90%. A high value points to weaker potency.
